Results on 88 compounds are retold here after ChEMBL document CHEMBL1157539, “Thousands of chemical starting points for antimalarial lead identification” (Nature, 2010).

The structures appear in SMILES notation.

The test deals with Plasmodium falciparum. The test can be described thus: GSK_TCMDC: Inhibition of Plasmodium falciparum 3D7 in whole erythrocytes, using parasite LDH activity as an index of growth. Format: functional, organism-based. The settings on record: Plasmodium falciparum, 3D7.
Take `O=[N+]([O-])c1ccc(Nc2nc(N/N=C/c3cccc(O)c3)nc(N3CCCC3)n2)cc1`: the XC50 was determined as 1.08 µM.

`CCN(CC)CCN(Cc1ccc(-c2ccc(C(F)(F)F)cc2)cc1)C(=O)Cn1c(CCc2cc(F)c(F)c(F)c2)nc(=O)c2ccccc21`: the XC50 came to 0.827 µM.

Take `CC(C)N1CCC(N(Cc2ccc(-c3ccc(C(F)(F)F)cc3)cc2)C(=O)Cn2c(CCc3cccc(F)c3F)nc(=O)c3cccnc32)CC1`: the XC50 came out at 0.642 µM.

`CCN(CC)CCN(Cc1ccc(-c2ccc(C(F)(F)F)cc2)cc1)C(=O)Cn1c(CCc2ccc(F)c(F)c2F)nc(=O)c2ccc(F)cc21` gave an XC50 of 0.736 µM.

Take `CO/C(=C\C=C\c1cc2cc(Cl)c(Cl)cc2[nH]1)C(=O)NC1CC(C)N(C)C(C)C1` (stereo not drawn): the XC50 stood at 0.902 µM.

In turn, `COc1ccc(CN2CCCN(Cc3cccc(NC(=O)c4ccc(Cl)c(Cl)c4)c3)CC2)cc1` displayed an XC50 of 0.973 µM.

`CCc1ccc2nc(-c3ccc(F)cc3)nc(SCC(=O)Nc3sc(C)c(C)c3C#N)c2c1` gave an XC50 of 0.643 µM.

`CN(C)CC(=O)NCC(NCCCNc1cc(=O)c2ccccc2[nH]1)c1cc(Br)cc(Br)c1` (stereo not drawn) came in with an XC50 of 1.05 µM.

`CC(C)(CN)c1nc(-c2ccc(Br)c(O)c2)c(-c2ccncc2)[nH]1`: the XC50 turned out to be 0.965 µM.

The compound `OC(CNCCc1ccccc1)Cn1c2ccc(Cl)cc2c2cc(Cl)ccc21` (stereo not drawn) came in with an XC50 of 0.733 µM.

In the case of `Cc1ccc(-c2ccc3c(c2)C=C(C(=O)NCC2CCN(CC4CCN(C(=O)/C=C/c5ccc(Cl)c(Cl)c5)CC4)CC2)CCC3)cc1`, the XC50 was 0.777 µM.

For `CCCCCc1cc(OC(C)=O)c2c(c1)OC(C)(C)C=C2C1=CCN(Cc2ccccc2)CC1`, the XC50 stood at 0.926 µM.

`OC(CNCc1cccc(Oc2ccc(Cl)cc2)c1)c1cccc(C(F)(F)F)c1` (stereo not drawn) showed an XC50 of 0.971 µM.

`Clc1ccc(CCNCCCCCCNCCc2ccc3c(c2)OCO3)cc1` returned an XC50 of 1.73 µM.

As to `CC(=O)Nc1nc(C)c(-c2csc(Nc3ccc(Cl)cc3)n2)s1`, the XC50 stood at 0.258 µM.

Consider `COc1cc(Nc2nccc(N3CCC(NC(=O)Nc4cccc(C(C)=O)c4)C3)n2)cc(OC)c1OC` (stereo not drawn), for which the XC50 was 0.973 µM.

In turn, `Cc1ccc(/C=C/C(=O)N2CCC(CCN3CCC(c4c[nH]c5ccccc45)CC3)CC2)cc1C` returned an XC50 of 0.926 µM.

In turn, `O=C(Nc1ccc(N2CCN(Cc3cccc(F)c3)CC2)cc1)c1cccs1` gave an XC50 of 0.682 µM.

Consider `Cc1cccc(C(=O)Nc2ccnc(N3CCC(N(C)Cc4cccc(O)c4)CC3)c2)c1`, for which the XC50 is 0.92 µM.

Regarding `COc1ccc2ncc(F)c(CCN3CCC(NCc4cc5c(cn4)OCCS5)CC3)c2c1`, the XC50 amounted to 0.776 µM.

In turn, `Cc1cccc2nc(-c3ccc(-c4ccc(CN5CCN(c6ccncc6)CC5)cc4)cc3)[nH]c12` came in with an XC50 of 0.163 µM.

Regarding `Oc1cccc2ccc(Nc3ccccn3)nc12`, the XC50 was determined as 0.752 µM.

As for `O=C(Nc1ccc(Cn2ncc(N3CCCNCC3)c(Cl)c2=O)cc1)Nc1cc(F)cc(C(F)(F)F)c1`, the XC50 amounted to 0.767 µM.

On to `CCCCCCc1cc2cc(-c3csc(C=Cc4ccccc4)n3)c(=O)oc2cc1O`, for which the XC50 was 0.97 µM.

The compound `COc1ccc2nc3ccccc3c(NCCN3CCN(C)CC3)c2c1` registered an XC50 of 1.29 µM.

`CCOC(=O)c1cn(CC)c2cc(F)c(OC3CC4CCC3(C)C4(C)C)cc2c1=O` (stereo not drawn) displayed an XC50 of 0.928 µM.

`CCCCCCCCOc1c(OCC)cc(Cc2cnc(N)nc2N)cc1OCC`: the XC50 was 1.53 µM.

`Cc1cc(N[C@@H](Cc2ccccc2)C(=O)NCCOc2ccccc2)nc(NCCc2ccc(F)cc2)n1` registered an XC50 of 0.603 µM.

Regarding `Cc1sc(CNCCCNc2cc(=O)c3ccccc3[nH]2)c(I)c1C`, the XC50 stood at 0.849 µM.

With `Cn1c(N)cc(-c2ccc(Br)cc2)c2c(=O)nc(N)nc1-2`, the XC50 was 1.13 µM.

On to `CC1CNC(c2ccc(NC(=O)c3ccc(C(=O)Nc4ccc(C5=NC(C)CN5)cc4)cc3)cc2)=N1` (stereo not drawn), for which the XC50 amounted to 0.0336 µM.

`COc1cc(OC)cc(C(=O)Nc2nc(-c3ccccn3)cs2)c1` yielded an XC50 of 0.561 µM.

Consider `CN1CCN(c2ccc3nccc(CCN4CCC(NCc5ccc6c(n5)NC(=O)CO6)CC4)c3n2)CC1`, for which the XC50 was 0.824 µM.

In turn, `Cc1nnsc1C(=O)Nc1cccc(-c2ccc(-c3nc4cc(C(F)(F)F)ccc4[nH]3)cc2)c1` came in with an XC50 of 0.314 µM.

The compound `COc1ccc(N2CCN(CCc3ccc(NC(=O)c4ccc([N+](=O)[O-])cc4)cc3)CC2)c(OC)c1` showed an XC50 of 1.17 µM.

In turn, `Oc1ccc(-c2nc(-c3ccc4oc5ccc(-c6[nH]c(-c7ccc(O)cc7)nc6-c6ccccc6)cc5c4c3)c(-c3ccccc3)[nH]2)cc1` had an XC50 of 1.11 µM.

`CCCCCOc1ccc(C=NNc2nc(O)cc(-c3ccccc3)n2)cc1`: the XC50 turned out to be 0.887 µM.

The compound `Cc1nc(-c2cccc(Nc3nccc(NCC(O)c4ccccc4)n3)c2)cs1` (stereo not drawn) displayed an XC50 of 0.793 µM.

`Cc1cc(C(=O)Nc2ccc3c(ccn3C3CCCN(Cc4ccc(C(F)(F)F)cc4F)CC3)c2)no1` (stereo not drawn) showed an XC50 of 0.765 µM.

`CCc1c[nH]c2c(N3CCCS3(=O)=O)cc(C(=O)N[C@@H](Cc3ccccc3)[C@H](O)CNC(C)(C)CCCC(C)C)cc12`: the XC50 was found to be 0.672 µM.

Take `c1ccc2c(NCCCCCCCCCNc3ccnc4ccccc34)ccnc2c1`: the XC50 turned out to be 0.115 µM.

Consider `CCCCc1cc(O)c2c(c1)OC(C)(C)C=C2C1=CCN(Cc2ccccc2)CC1`, for which the XC50 is 0.247 µM.

In turn, `Cc1nn(CCOC(=O)NC(NCC2COc3ccccc3O2)C(Cl)(Cl)Cl)cc1[N+](=O)[O-]` (stereo not drawn) had an XC50 of 0.917 µM.

Turning to `Oc1ccc(CCNc2nc(NCc3ccccc3-c3ccc(C(F)(F)F)cc3)nc(N3CCNCC3)n2)cc1`, the XC50 stood at 0.866 µM.

In turn, `NC1CCN(c2nc(NCCc3ccc(O)cc3)nc(NCc3ccccc3-c3ccccc3)n2)CC1` showed an XC50 of 0.822 µM.

`Cc1nc(N)nc(N)c1-c1cc(Cl)c(N)c(Cl)c1`: the XC50 amounted to 0.805 µM.

`COc1ccc2[nH]ccc(=NN=Cc3ccccc3F)c2c1` gave an XC50 of 0.62 µM.

Compound `CC1CN(Cc2ccc(C#N)cc2)CCN1c1ccc(NC(=O)c2cccs2)cc1` (stereo not drawn) displayed an XC50 of 0.809 µM.

With `c1cncc(-c2cc(N3CCCCC3)nc(-c3ccncc3)n2)c1`, the XC50 was found to be 0.767 µM.

In turn, `FC(F)(F)c1cccc(Nc2nc3nonc3nc2NC2C3CC4CC(C3)CC2C4)c1` (stereo not drawn) displayed an XC50 of 0.661 µM.

`CCc1ccc2c(c1O)CCN(C)C2Cc1ccccc1Cl` (stereo not drawn) yielded an XC50 of 0.251 µM.

`c1cc(Cc2ccc(Nc3c4ccccc4nc4ccccc34)cc2)cc(Nc2c3ccccc3nc3ccccc23)c1` came in with an XC50 of 0.143 µM.

In turn, `CCc1ccc(N2C(N)=NC(N)=NC2(C)C)cc1` showed an XC50 of 0.00882 µM.

Regarding `COc1ccc(CCCc2nc(N)nc(N)c2-c2ccc(Cl)cc2)cc1`, the XC50 turned out to be 0.0442 µM.

As to `Cn1cc(CN2CCC(CCOC(c3ccccc3)c3ccccc3)CC2)cn1`, the XC50 amounted to 0.259 µM.

In turn, `Nc1ccc(-c2ccc3ccnc(N)c3c2)cc1` showed an XC50 of 0.682 µM.

`c1cncc(CN2CCN(Cc3ccc(-c4ccc(-c5nc6ccccc6[nH]5)s4)cc3)CC2)c1` returned an XC50 of 0.938 µM.

As to `Cc1ccccc1C1CCN(c2ccc(C(=O)NC3CC3)cn2)CC1`, the XC50 was found to be 0.846 µM.

In the case of `NOCCCOc1ccccc1`, the XC50 was 0.321 µM.

`Oc1ccc2ccccc2c1CNCC1CCCCC1`: the XC50 came out at 0.667 µM.

In turn, `OC(c1ccc(Cl)cc1)(c1ccc(Cl)cc1)C(c1ccc(Cl)cc1)n1ccnc1` (stereo not drawn) displayed an XC50 of 0.863 µM.

The compound `O=C(Nc1cccc(N2CCC(NCCCn3ccnc3)CC2)c1)c1cccc(C(F)(F)F)c1` returned an XC50 of 1.11 µM.

As for `OCCN1CCN(C2Cc3ccc(F)cc3Sc3ccc(Cl)cc32)CC1` (stereo not drawn), the XC50 came out at 0.876 µM.

`C[C@@H](CC1CCCCC1)NCc1cccc(NS(=O)(=O)c2ccc(O)c(-c3ccno3)c2)c1` displayed an XC50 of 0.376 µM.

As to `Cc1ccc(C(C)C)c(Oc2cnc(NC(CO)c3ccccc3)nc2N)c1` (stereo not drawn), the XC50 turned out to be 0.962 µM.

With `CCN(CC)CCN(Cc1ccc(-c2ccc(C(F)(F)F)cc2)cc1)C(=O)c1ccc(-c2ccc(NC(=O)OC)cc2C)cc1`, the XC50 turned out to be 0.929 µM.

In turn, `Cc1cc(F)ccc1-c1nc(N(C)CCN(C)C(=O)N(C)c2ccccc2)nc2c1ccc(=O)n2-c1c(F)cccc1F` came in with an XC50 of 1.24 µM.

As to `C1=CN(Cc2ccccc2)C=CC1=C1C=Nc2ccccc21`, the XC50 was 0.756 µM.

With `c1ccc(CN2CCc3cc4nccc(N5CCNCC5)c4cc32)cc1`, the XC50 came to 0.4 µM.

`Cc1cc(C)cc(N2C(N)=NC(N)=NC2(C)C)c1` came in with an XC50 of 0.042 µM.

In the case of `CCCCCCCN1CCC(CC(=O)Nc2ccnc3ccc(OC)cc23)CC1`, the XC50 was found to be 0.722 µM.

On to `CNC(=O)c1cnc(Nc2ccc(N3CCOCC3)cc2)nc1Nc1cccc(OC)c1`, for which the XC50 was determined as 0.759 µM.

On to `CCCC(C)NC[C@@H](O)[C@H](Cc1ccccc1)NC(=O)c1cc(C2CCCC2)cc(N2CCCCS2(=O)=O)c1` (stereo partly drawn), for which the XC50 was determined as 0.147 µM.

On to `O=C(Nc1ccc2c(c1)CCNCC2)c1ccc(-c2ccc(Cl)cc2)cc1`, for which the XC50 came out at 0.814 µM.

Compound `Cc1cnc(CN(Cc2ccc(-c3ccc(CNCCc4ccc(S(C)(=O)=O)cc4)cn3)cc2)C(=O)c2ccc([N+](=O)[O-])c(C)c2)cn1` gave an XC50 of 0.919 µM.

In turn, `Cc1c(F)cc(C(=O)NC2CC2)cc1-c1ccc2c(cnn2S(=O)(=O)c2ccc(Cl)s2)c1` had an XC50 of 0.391 µM.

The compound `O=C(Nc1cccc(-c2ccc(NCCCN3CCCC3)nc2)c1)c1ccccc1` displayed an XC50 of 0.865 µM.

As for `COc1cc2nc(-c3ccccc3)nc(N3CCN(C(=O)c4ccco4)CC3)c2cc1OC`, the XC50 worked out at 1.41 µM.

Consider `COc1ccc(Nc2nc(C)cc(NCc3ccc(-c4c(C)noc4C)cc3)n2)cc1`, for which the XC50 worked out at 0.844 µM.

The compound `COc1cc(C)nc2ccc(NC(=O)Nc3ccc([N+](=O)[O-])cc3C)cc12` gave an XC50 of 0.602 µM.

With `O=C(Nc1ccc(C(=O)OCC2CCCN3CCCCC23)cc1)c1ccc([N+](=O)[O-])cc1` (stereo not drawn), the XC50 is 0.716 µM.

`COc1ccc(C(=O)Nc2cc(Cl)c3c(c2)C2CCCN2CC3)cc1C(F)(F)F` (stereo not drawn) returned an XC50 of 0.753 µM.

In turn, `CC(O)C1CCCCN1C(=O)c1cccc(-c2ccc(-c3nc4cc(F)ccc4[nH]3)cc2)c1` (stereo not drawn) displayed an XC50 of 0.742 µM.

Take `O=C(Nc1ccc2c(c1)CCC2)N[C@H]1CCN(Cc2ccc(OCCCN3CCCCC3)cc2)C1`: the XC50 turned out to be 0.864 µM.

On to `CSc1sc(NC(=O)Nc2cccc(C(F)(F)F)c2)cc1C#N`, for which the XC50 worked out at 0.912 µM.

In the case of `COc1ccc(-c2ccc(NC(=O)c3ccccc3)cc2)cc1CN1CCCN(C)CC1`, the XC50 amounted to 0.905 µM.

Regarding `C=C(C)COc1ccc(-c2n[nH]c(C(F)(F)F)c2-c2ccccc2OC)c(O)c1`, the XC50 was found to be 0.781 µM.

For `COc1ccc(-c2csc3nc(C)nc(Cl)c23)cc1OC`, the XC50 came to 0.357 µM.
